The values that follow are results of earlier work, collected in US20100317522A1, “Adjuvants for Agrochemical Applications” (COGNIS IP […], priority 2007, published 2010).

Molecules are shown by their SMILES.

The conditions of this series: rat, oral (WHO).

In the case of `O=C(O)CNCP(=O)(O)O` [Glyphosate, N-(phosphonomethyl)glycine], the LD50 is recorded as 4320 mg/kg.
